Experimental data reported in patent US20260317320A1, “C5AR1 ANTAGONISTS AND USES THEREOF” (Vanqua Bio, Inc., priority 2022, published 2026).
pIC50: −log10 of the molar value. Read-outs that look alike come from different tables or passages of the source.

How the values were obtained:
[1] = biological target: T1, complement C5a receptor 1 (C5aR1) (Homo sapiens, UniProt P21730); test: β-arrestin recruitment via C5aR1 activation in live CHO-K1 cells (PathHunter), antagonist mode; assay type: cell-based; settings: antagonist mode; recombinant hC5a (EC90) as competing natural agonist; live CHO-K1 cells; read-out: [Antagonist] B-arrestin2 recruitment: Average IC50
T1 construct: β-galactosidase fragment (PathHunter enzyme complementation); host or cells: CHO-K1 (PathHunter CHO-K1 C5aR1 β-arrestin cell line)
T1 sequence (P21730 1-350): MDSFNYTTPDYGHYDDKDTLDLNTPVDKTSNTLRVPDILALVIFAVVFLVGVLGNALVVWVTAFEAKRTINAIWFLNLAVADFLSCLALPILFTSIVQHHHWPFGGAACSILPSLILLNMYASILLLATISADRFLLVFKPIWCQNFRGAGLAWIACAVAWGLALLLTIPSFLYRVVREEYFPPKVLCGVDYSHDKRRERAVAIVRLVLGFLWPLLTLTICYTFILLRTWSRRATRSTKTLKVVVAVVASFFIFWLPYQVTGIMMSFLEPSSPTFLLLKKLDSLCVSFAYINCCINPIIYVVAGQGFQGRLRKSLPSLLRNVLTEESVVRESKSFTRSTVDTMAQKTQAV
How it was run: (§1)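 β-arrestin recruitment to C5aR1 in CHO-K1 cells is detected by enzyme-fragment complementation. Antagonism is measured against recombinant hC5a at its EC90; agonism is measured with compound alone. Potencies are grouped into IC50 categories.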

[2] = biological target: T1, complement C5a receptor 1 (C5aR1); test: β-arrestin recruitment via C5aR1 activation in live CHO-K1 cells (PathHunter), agonist mode; assay type: cell-based
How it was run: as §1

Row | Structure (SMILES) | pIC50 [1] | [Agonist] B-arrestin2 recruitment: Average EC50 (nM) [2] | [Agonist] B-arrestin2 recruitment: Average EC50 (nM) ([2]; at 10 μM)
1 | Cc1cnc2cc([C@H]3CC[C@@H](c4c(C)ccnc4F)CC3)c(=O)n(Cc3nccnc3C(F)(F)F)c2n1 [143B, 7-((1s,4s)-4-(2-Fluoro-4-methylpyridin-3-yl)cyclohexyl)-3-methyl-5-((3-(trifluoromethyl)pyrazin-2-yl)methyl)pyrido[2,3-b]pyrazin-6(5H)-one] | 5.30 to 6.30 | Non-Active | –
2 | Cc1cnc2cc([C@H]3CC[C@H](c4ccc5c(cnn5C)c4)CC3)c(=O)n(Cc3ncccc3C(F)(F)F)c2n1 [compound 192, 3-Methyl-7-((1r,4r)-4-(1-methyl-1H-indazol-5-yl)cyclohexyl)-5-((3-(trifluoromethyl)pyridin-2-yl)methyl)pyrido[2,3-b]pyrazin-6(5H)-one] | 5.30 to 6.30 | – | Non-Active at 10 μM
3 | Cc1ccc2cc([C@H]3CC[C@H](c4c(C)cccc4F)CC3)c(=O)n(Cc3nccnc3C)c2n1 [compound 206, 3-((1r,4r)-4-(2-fluoro-6-methylphenyl)cyclohexyl)-7-methyl-1-((3-methylpyrazin-2-yl)methyl)-1,8-naphthyridin-2(1H)-one] | 5.30 to 6.30 | – | Non-Active at 10 μM
4 | Cc1cnc2cc([C@@H]3CC[C@H](c4c(C)cccc4F)C3)c(=O)n(Cc3nccnc3C(F)(F)F)c2n1 [197C, 7-((1R,3S)-3-(2-Fluoro-6-methylphenyl)cyclopentyl)-3-methyl-5-((3-(trifluoromethyl)pyrazin-2-yl)methyl)pyrido[2,3-b]pyrazin-6(5H)-one] | 4.00 to 5.30 | – | Non-Active at 10 μM
5 | Cc1cccc(F)c1N1CCC(c2nc3nccnc3n(Cc3ccccc3OC(F)F)c2=O)CC1 [compound 46, 1-(2-(difluoromethoxy)benzyl)-3-(1-(2-fluoro-6-methylphenyl)piperidin-4-yl)pyrazino[2,3-b]pyrazin-2(1H)-one] | 5.30 to 6.30 | Non-Active | –
6 | Cc1cnc2cc([C@@H]3CC[C@@H](c4c(C)cccc4F)C3)c(=O)n(Cc3ncccc3OC(F)F)c2n1 [175D, 5-((3-(Difluoromethoxy)pyridin-2-yl)methyl)-7-((1R,3R)-3-(2-fluoro-6-methylphenyl)cyclopentyl)-3-methylpyrido[2,3-b]pyrazin-6(5H)-one] | 5.30 to 6.30 | – | Non-Active at 10 μM
7 | Cc1cnc2cc(C3CCN(c4nccnc4C)CC3)c(=O)n(Cc3ncccc3C(F)(F)F)c2n1 [compound 151, 3-Methyl-7-(1-(3-methylpyrazin-2-yl)piperidin-4-yl)-5-((3-(trifluoromethyl)pyridin-2-yl)methyl)pyrido[2,3-b]pyrazin-6(5H)-one] | 5.30 to 6.30 | – | Non-Active at 10 μM
8 | Cc1c(C2CCN(c3cccnc3C(F)(F)F)CC2)c(=O)n(Cc2ccccc2F)c2nccnc12 [compound 11, 5-(2-Fluorobenzyl)-8-methyl-7-(1-(2-(trifluoromethyl)pyridin-3-yl)piperidin-4-yl)pyrido[2,3-b]pyrazin-6(5H)-one] | < 4.00 | Non-Active | –
9 | Cc1cnc2cc(C3CCN(c4nccnc4C(F)(F)F)CC3)c(=O)n(Cc3ncccc3C(F)(F)F)c2n1 [compound 156, 3-Methyl-7-(1-(3-(trifluoromethyl)pyrazin-2-yl)piperidin-4-yl)-5-((3-(trifluoromethyl)pyridin-2-yl)methyl)pyrido[2,3-b]pyrazin-6(5H)-one] | 5.30 to 6.30 | – | Non-Active at 10 μM
10 | Cc1cnc2cc(C3CCN(c4cc(F)cnc4C)CC3)c(=O)n(Cc3ncccc3C(F)(F)F)c2n1 [compound 56, 7-(1-(5-fluoro-2-methylpyridin-3-yl)piperidin-4-yl)-3-methyl-5-((3-(trifluoromethyl)-pyridin-2-yl)methyl)pyrido[2,3-b]pyrazin-6(5H)-one] | 4.00 to 5.30 | Non-Active | –
11 | Cc1cccc(F)c1N1CCC(c2cc3nccnc3n([C@H]3CCCc4cccnc43)c2=O)CC1 [40b, (S)-7-(1-(2-Fluoro-6-methylphenyl)piperidin-4-yl)-5-(5,6,7,8-tetrahydroquinolin-8-yl)pyrido[2,3-b]pyrazin-6(5H)-one] | < 4.00 | Non-Active | –
12 | COc1nccc(C)c1[C@H]1CC[C@H](c2cc3ccc(C)nc3n(Cc3ncccc3C(F)(F)F)c2=O)CC1 [compound 234, 3-((1r,4r)-4-(2-Methoxy-4-methylpyridin-3-yl)cyclohexyl)-7-methyl-1-((3-(trifluoromethyl)pyridin-2-yl)methyl)-1,8-naphthyridin-2(1H)-one] | > 6.30 | – | Non-Active at 10 μM
13 | Cc1ccc2cc([C@H]3CC[C@H](c4c(C)ccnc4F)CC3)c(=O)n(Cc3ncccc3C(F)(F)F)c2n1 [compound 262, 7-Methyl-3-[(1r,4r)-4-(2-fluoro-4-methyl-3-pyridyl)cyclohexyl]-1-{[3-(trifluoromethyl)-2-pyridyl]methyl}-1,8-diaza-2(1H)-naphthalenone] | > 6.30 | Non-Active | –
14 | Cc1ccc2cc([C@H]3CC[C@H](c4c(C)cccc4F)CC3)c(=O)n(Cc3nccnc3OCC(F)F)c2n1 [compound 263, 1-{[3-(2,2-Difluoroethoxy)-2-pyrazinyl]methyl}-7-methyl-3-[(1r,4r)-4-(2-fluoro-6-tolyl)cyclohexyl]-1,8-diaza-2(1H)-naphthalenone] | > 6.30 | Non-Active | –

Other lines, results leading:

Row | pIC50 [1] | [Agonist] B-arrestin2 recruitment: Average EC50 (nM) [2] | [Agonist] B-arrestin2 recruitment: Average EC50 (nM) ([2]; at 10 μM) | Structure (SMILES)
15 | > 6.30 | Non-Active | – | Cc1cnc2cc(C3CCN(c4c(C)ccnc4F)CC3)c(=O)n(Cc3nccnc3C(F)(F)F)c2n1 [compound 130, 7-(1-(2-Fluoro-4-methylpyridin-3-yl)piperidin-4-yl)-3-methyl-5-((3-(trifluoromethyl)pyrazin-2-yl)methyl)pyrido[2,3-b]pyrazin-6(5H)-one]
16 | > 6.30 | Non-Active | – | Cc1cc(F)ncc1N1CCC(c2cc3nccnc3n(Cc3ccccc3C(F)(F)F)c2=O)CC1 [compound 32, 7-(1-(6-Fluoro-4-methylpyridin-3-yl)piperidin-4-yl)-5-(2-(trifluoromethyl)benzyl)pyrido-[2,3-b]pyrazin-6(5H)-one]
17 | > 6.30 | – | Non-Active at 10 μM | Cc1cnc2cc([C@H]3CC[C@H](c4c(C)cccc4F)CC3)c(=O)n(Cc3ccccc3C(F)(F)F)c2n1 [compound 224, 7-((1r,4r)-4-(2-Fluoro-6-methylphenyl)cyclohexyl)-3-methyl-5-(2-(trifluoromethyl)benzyl)pyrido[2,3-b]pyrazin-6(5H)-one]
18 | > 6.30 | Non-Active | – | Cc1cccc(F)c1[C@H]1CC[C@H](c2cc3ncc(C(C)(F)F)nc3n(Cc3ncccc3C(F)(F)F)c2=O)CC1 [compound 267, 3-(1,1-Difluoroethyl)-7-[(1r,4r)-4-(2-fluoro-6-tolyl)cyclohexyl]-5-{[3-(trifluoromethyl)-2-pyridyl]methyl}-1,4,5-triaza-6(5H)-naphthalenone]
19 | > 6.30 | – | Non-Active at 10 μM | Cc1cnc2cc([C@H]3CC[C@H](c4c(C)cccc4F)CC3)c(=O)n(Cc3ncccc3CC(F)(F)F)c2n1 [compound 219, 7-((1r,4r)-4-(2-Fluoro-6-methylphenyl)cyclohexyl)-3-methyl-5-((3-(2,2,2-trifluoroethyl)pyridin-2-yl)methyl) pyrido[2,3-b]pyrazin-6(5H)-one]
20 | > 6.30 | Non-Active | – | COc1nccc(C)c1[C@H]1CC[C@H](c2cc3ccc(C)nc3n(Cc3ncccc3C(C)(F)F)c2=O)CC1 [compound 256, 1-{[3-(1,1-Difluoroethyl)-2-pyridyl]methyl}-7-methyl-3-[(1r,4r)-4-(2-methoxy-4-methyl-3-pyridyl)cyclohexyl]-1,8-diaza-2(1H)-naphthalenone]
21 | > 6.30 | – | Non-Active at 10 μM | Cc1ccc2cc([C@H]3CC[C@H](c4c(C)cccc4F)CC3)c(=O)n(Cc3nccnc3OC(F)F)c2n1 [compound 233, 1-((3-(Difluoromethoxy)pyrazin-2-yl)methyl)-3-((1r,4r)-4-(2-fluoro-6-methylphenyl)cyclohexyl)-7-methyl-1,8-naphthyridin-2(1H)-one]
22 | > 6.30 | Non-Active | – | Cc1cnc2cc([C@H]3CC[C@H](c4cnsc4C)CC3)c(=O)n(Cc3nccnc3C(F)(F)F)c2n1 [compound 242, 3-Methyl-7-((1r,4r)-4-(5-methylisothiazol-4-yl)cyclohexyl)-5-((3-(trifluoromethyl)pyrazin-2-yl)methyl)pyrido[2,3-b]pyrazin-6(5H)-one]
23 | > 6.30 | – | Non-Active at 10 μM | Cc1cnc2cc([C@H]3CC[C@H](c4c(C)cccc4F)CC3)c(=O)n(Cc3nccnc3OC(F)F)c2n1 [168B, 5-((3-(Difluoromethoxy)pyrazin-2-yl)methyl)-7-((1r,4r)-4-(2-fluoro-6-methylphenyl)cyclohexyl)-3-methylpyrido[2,3-b]pyrazin-6(5H)-one]
